Data as given in US10093623B2, “Cyclic amides as MetAP-2 inhibitors” (MERCK PATENT GmbH, priority 2012, dated 2018).

Target: MetAP-2 (Homo sapiens, UniProt P50579)
Experiment: MetAP-2 activity measurement (coupled enzymatic reactions, Met-Arg-Ser substrate, dianisidine detection at 450 nm)
Format: biochemical
Conditions: Inhibition of MetAP-2; read-out: IC50 enzyme
Method: MetAP-2 Activity Measurement
The MetAP-2 activity is determined by coupling enzymatic reactions. The tripeptide Met-Arg-Ser (MAS) is employed as substrate. The methionine liberated is firstly converted into Metox and H2O2 by L-aminooxidase (AAO). In the second step, the peroxidase (POD) with the aid of the H2O2 catalyses the oxidation of the leukodye dianisidine to dianisidineox, the increase of which is detected photometrically at 450 nm.
MetAP-2 activity can be recorded continuously as kinetics. The reaction scheme illustrates that one mol of dianisidineox is formed per mol of methionene. The MetAP-2 enzyme activity can therefore be calculated directly as A absorption per time unit. Qualification of the MetAP-2 activity (mol of Met/time unit) is possible with the aid of the dianisidineox extinction coefficient.
The change in extinction per time unit is depicted graphically and a slope calculation is carried out in the visually linear region of the reaction.

Sequence of MetAP-2 (P50579 whole entry, species assumed): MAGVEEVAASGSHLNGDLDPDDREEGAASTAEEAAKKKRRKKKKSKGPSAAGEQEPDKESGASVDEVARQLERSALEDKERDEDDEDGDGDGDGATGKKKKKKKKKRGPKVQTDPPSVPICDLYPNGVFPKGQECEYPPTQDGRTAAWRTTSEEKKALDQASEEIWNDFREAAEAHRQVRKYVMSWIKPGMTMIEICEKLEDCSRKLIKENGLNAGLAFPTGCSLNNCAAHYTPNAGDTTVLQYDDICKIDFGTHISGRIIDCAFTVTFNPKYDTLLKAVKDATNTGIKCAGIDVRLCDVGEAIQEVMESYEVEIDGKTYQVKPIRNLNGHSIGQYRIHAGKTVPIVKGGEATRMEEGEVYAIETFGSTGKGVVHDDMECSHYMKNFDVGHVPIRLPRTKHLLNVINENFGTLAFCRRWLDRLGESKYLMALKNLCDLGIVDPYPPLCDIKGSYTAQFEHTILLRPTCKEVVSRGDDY

SMILES | IC50
CC1(C)CN(c2ccccc2)C(=O)[C@]1(O)C(=O)NCc1cc(F)cc(Cl)c1 [A109, N-(3-Chloro-5-fluorobenzyl)-(R)-3-hydroxy-4,4-dimethyl-2-oxo-1-phenylpyrrolidine-3-carboxamide] | > 10000 nM
C=C(Cc1ccccc1)C(=O)[C@@]1(O)CCN(c2ccccc2)C1=O [A110, (S)-3-(2-Benzylacryloyl)-3-hydroxy-1-phenylpyrrolidin-2-one] | > 10000 nM
O=C(NCc1cc(F)cc(Cl)c1)C1(O)CCN(c2ccc3c(c2)c(C(F)(F)F)cn3CO)C1=O (stereo not shown) [A112, N-(3-Chloro-5-fluorobenzyl)-3-hydroxy-1-(1-hydroxymethyl-3-trifluoromethyl-1H-indol-5-yl)-2-oxopyrrolidine-3-carboxamide] | 10 to 1000 nM
O=C1NCCc2ccc(N3CCC(O)(C(=O)NCc4cc(F)cc(Cl)c4)C3=O)cc21 (stereo not shown) [A115, N-(3-Chloro-5-fluorobenzyl)-3-hydroxy-2-oxo-1-(1-oxo-1,2,3,4-tetrahydroisoquinolin-7-yl)-pyrrolidine-3-carboxamide] | 10 to 1000 nM
CNc1ccc(N2CCC(O)(C(=O)NCc3cc(F)cc(Cl)c3)C2=O)cn1 (stereo not shown) [A116, N-(3-Chloro-5-fluorobenzyl)-3-hydroxy-1-(6-methylamino-pyridin-3-yl)-2-oxopyrrolidine-3-carboxamide] | 10 to 1000 nM
OC1(CNCc2cc(F)cc(Cl)c2)CCN(c2ccccc2)C1 (stereo not shown) [A120, 3-[(3-chloro-5-fluorobenzylamino)methyl]-1-phenylpyrrolidin-3-ol] | > 10000 nM
O=C(NCc1cc(F)cc(Cl)c1)C1(O)CCN(Cc2ccccc2)C1 (stereo not shown) [A121, N-(3-chloro-5-fluorobenzyl)-1-benzyl-3-hydroxypyrrolidine-3-carboxamide] | 1000 to 10000 nM
CC(=O)N[C@H]1CC[C@H](N2CCC(O)(C(=O)NCc3cc(F)cc(Cl)c3)C2=O)CC1 (stereo partly shown) [A122, N-(3-Chloro-5-fluorobenzyl)-1-(4-acetylaminocyclohexyl)-3-hydroxy-2-oxopyrrolidine-3-carboxamide] | 1000 to 10000 nM
CS(=O)(=O)N[C@H]1CC[C@H](N2CCC(O)(C(=O)NCc3cc(F)cc(Cl)c3)C2=O)CC1 (stereo partly shown) [A123, N-(3-Chloro-5-fluorobenzyl)-3-hydroxy-1-(4-methane-sulfonylaminocyclohexyl)-2-oxo-pyrrolidine-3-carboxamide] | 1000 to 10000 nM
CCS(=O)(=O)N[C@H]1CC[C@H](N2CCC(O)(C(=O)NCc3cc(F)cc(Cl)c3)C2=O)CC1 (stereo partly shown) [A124, N-(3-Chloro-5-fluorobenzyl)-1-(4-ethanesulfonylamino-cyclohexyl)-3-hydroxy-2-oxo-pyrrolidine-3-carboxamide] | 1000 to 10000 nM
O=C(NCc1cc(F)cc(Cl)c1)C1(O)CCN([C@H]2CCC[C@H](O)[C@@H]2O)C1=O (stereo partly drawn) [A125, N-(3-Chloro-5-fluorobenzyl)-1-((1S,2R,3S)-2,3-dihydroxy-cyclohexyl)-3-hydroxy-2-oxo-pyrrolidine-3-carboxamide] | 1000 to 10000 nM
CC(=O)NC1CCCC(N2CCC(O)(C(=O)NCc3cc(F)cc(Cl)c3)C2=O)C1 (stereo not shown) [A126, N-(3-Chloro-5-fluorobenzyl)-1-(3-acetylaminocyclohexyl)-3-hydroxy-2-oxopyrrolidine-3-carboxamide] | 1000 to 10000 nM
CCN[C@H]1CC[C@H](N2CCC(O)(C(=O)NCc3cc(F)cc(Cl)c3)C2=O)CC1 (stereo partly shown) [A127, N-(3-Chloro-5-fluorobenzyl)-1-(4-ethylaminocyclohexyl)-3-hydroxy-2-oxopyrrolidine-3-carboxamide] | 1000 to 10000 nM
CCS(=O)(=O)NC1CCCC(N2CCC(O)(C(=O)NCc3cc(F)cc(Cl)c3)C2=O)C1 (stereo not shown) [A128, N-(3-Chloro-5-fluorobenzyl)-1-(3-ethanesulfonylamino-cyclohexyl)-3-hydroxy-2-oxo-pyrrolidine-3-carboxamide] | 1000 to 10000 nM
NC(=O)c1cc(C(N)=O)cc(N2CCC(O)(C(=O)NCc3cc(F)cc(Cl)c3)C2=O)c1 (stereo not shown) [A130, 5-[3-(3-Chloro-5-fluorobenzylcarbamoyl)-3-hydroxy-2-oxopyrrolidin-1-yl]-isophthalamide] | 1000 to 10000 nM
O=C(NCc1cc(F)cc(Cl)c1)C1(O)CCN([C@@H]2CCNC2)C1=O (stereo partly drawn) [A131, N-(3-Chloro-5-fluorobenzyl)-(R)-3-hydroxy-2-oxo-[1,3′]bipyrrolidinyl-3-carboxamide] | > 10000 nM
CN(C)C(=O)c1cccc(N2CCC(O)(C(=O)NCc3cc(F)cc(Cl)c3)C2=O)c1 (stereo not shown) [A134, N-(3-Chloro-5-fluorobenzyl)-1-(3-Dimethylcarbamoylphenyl)-3-hydroxy-2-oxopyrrolidine-3-carboxamide] | 10 to 1000 nM
COc1ccc(CN2CCC(O)(C(=O)NCc3cc(F)cc(Cl)c3)C2=O)cc1 (stereo not shown) [A135, N-(3-Chloro-5-fluorobenzyl)-3-hydroxy-1-(4-methoxybenzyl)-2-oxopyrrolidine-3-carboxamide] | 10 to 1000 nM
O=C(NCc1cc(F)cc(Cl)c1)C1(O)CCN(Cc2ccccc2)C1=O (stereo not shown) [A136, N-(3-Chloro-5-fluorobenzyl)-1-benzyl-3-hydroxy-2-oxo-pyrrolidine-3-carboxamide] | 10 to 1000 nM

More lines, now with the values ahead:

IC50 | SMILES
> 10000 nM | O=C(NCc1cc(F)cc(Cl)c1)[C@]1(O)CCN(c2ccc(C(F)(F)F)nc2)C1=O [A108, N-(3-Chloro-5-fluorobenzyl)-(R)-3-hydroxy-2-oxo-1-(6-trifluoromethylpyridin-3-yl)-pyrrolidine-3-carboxamide]
> 10000 nM | C=C(Cc1ccccc1)C(=O)[C@]1(O)CCN(c2ccccc2)C1=O [A111, (R)-3-(2-Benzylacryloyl)-3-hydroxy-1-phenylpyrrolidin-2-one]
> 10000 nM | O=C(NCc1cc(F)cc(Cl)c1)C1(O)C(=O)N(c2ccccc2)CC12COC2 (stereo not shown) [A113, N-(3-Chloro-5-fluorobenzyl)-8-hydroxy-7-oxo-6-phenyl-2-oxa-6-azaspiro[3.4]octane-8-carboxamide]
10 to 1000 nM | Cc1cncc(N2CCC(O)(C(=O)NCc3cc(F)cc(Cl)c3)C2=O)c1 (stereo not shown) [A117, N-(3-Chloro-5-fluorobenzyl)-3-hydroxy-1-(5-methylpyridin-3-yl)-2-oxopyrrolidine-3-carboxamide]
10 to 1000 nM | O=C(NCc1cc(F)cc(Cl)c1)C1(O)CCN(c2cnc3c(c2)OCCN3)C1=O (stereo not shown) [A118, N-(3-Chloro-5-fluorobenzyl)-1-(3,4-Dihydro-2H-pyrido[3,2-b]-1,4-oxazin-7-yl)-3-hydroxy-2-oxopyrrolidine-3-carboxamide]
1000 to 10000 nM | CC1CC(O)(C(=O)NCc2cc(F)cc(Cl)c2)C(=O)N1c1ccccc1 (stereo not shown) [A119, N-(3-chloro-5-fluorobenzyl)-3-hydroxy-5-methyl-2-oxo-1-phenylpyrrolidine-3-carboxamide]
1000 to 10000 nM | CC1(C)O[C@H]2[C@H](CCC[C@@H]2N2CCC(O)(C(=O)NCc3cc(F)cc(Cl)c3)C2=O)O1 (stereo partly drawn) [A129, N-(3-Chloro-5-fluorobenzyl)-1-((3aR,4S,7aS)-2,2-dimethyl-hexahydrobenzo-1,3-dioxol-4-yl)-3-hydroxy-2-oxopyrrolidine-3-carboxamide]
10 to 1000 nM | CNC(=O)c1cccc(N2CCC(O)(C(=O)NCc3cc(F)cc(Cl)c3)C2=O)c1 (stereo not shown) [A133, N-(3-Chloro-5-fluorobenzyl)-3-hydroxy-1-(3-methylcarbamoyl-phenyl)-2-oxopyrrolidine-3-carboxamide]
10 to 1000 nM | O=C1CCc2cc(N3CCC(O)(C(=O)NCCc4cc(F)cc(Cl)c4)C3=O)ccc2N1 (stereo not shown) [A137, N-[2-(3-Chloro-5-fluorophenyl)-ethyl]-3-hydroxy-2-oxo-1-(2-oxo-1,2,3,4-tetrahydroquinolin-6-yl)-pyrrolidine-3-carboxamide]
